Columns and labels:
[1] = tested on: HepG2 cells; test: MTT assay, cell viability of HepG2 cells; assay type: cell-based; settings: Homo sapiens, HepG2, 48 h
Procedure: HepG2 cells (1 × 10^4 cells/well) or RAW264.7 cells ([…]) were incubated in 96T wells for 24 h. Then, HepG2 cells were treated with compounds or Adriamycin for 48 h. In addition, RAW264.7 cells were treated with compounds for 24 h. Then, 0.5% MTT (Sigma, Saint Louis, MO, USA) was added to 20 μL/well for 3.5 h. The supernatant was discarded, and DMSO (150 μL/well) was added to dissolve the purple formazan. Cells were agitated for 15 min at room temperature, and the absorbance at 490 nm was recorded by SpetraMax M2 (Molecular Devices, San Jose, CA, USA).

[2] = tested on: Huh-7 cells; test: MTT assay, cell viability of Huh-7 cells; assay type: cell-based; settings: Homo sapiens, Huh-7, read-out: Huh-7 IC50
Description: 2. The anti-proliferation of compound 5 on Huh-7 cells
We tested another hepatoma cell line (Huh-7) to validate effect of compound 5. L02 (normal hepatocytes), HepG2 and Hub-7 cells were used to discuss the effect of 5. […]
of 5 on Huh-7 cell was (24.49±[…]) μM (Table S1). The morphology and apoptosis of the cells by reversed microscope and flow cytometry, respectively.
Second, the expression and phosphorylation of ATP1A1 were detected by Western blot analysis in L02, HepG2 and Huh-7 cells. Compared with L02 group, the expression of ATP1A1 was higher in HepG2 and Huh-7 cells, but there was no significant difference in the phosphorylation of ATP1A1 (Figure […]
At last, the effect of 5 on the expression and the phosphorylation of ATP1A1 in Huh-7 cells was […]
the phosphorylation of ATP1A1. The result was consistent with that observed in HepG2 cells (Figure […]
Table S1 Cell viability of Huh-7 cell treated by compound 5

[3] = tested on: HepG2 cells; test: Scratch test and colony formation assay; assay type: cell-based; settings: scratch 36 h, colony 7 days, 12.5 and 25 μmol
Procedure: HepG2 cells (8 × 10^4 cells/well) were incubated in 24-well plates for 24 h. Cells were treated with a compound for 36 h after making a uniform straight from scratch with a 200 μL pipette tip. Cell motility was detected by measuring the wound closure distance after 36 h. Images were recorded using an inverted microscope (Olympus CK40, Shinjuku, Japan). HepG2 cells (600 cells/well) were incubated in 6-well plates and treated with the compound. One week later, visible colonies had formed. Then, the colonies were fixed with 4% polymethanol paraformaldehyde and stained with crystal violet (0.005%). The number of colonies was calculated by using a microscope.

[4] = tested on: Bax, cleaved caspase 3, cleaved caspase 8, Bcl-2, LC3-B, p62, AKT/mTOR in HepG2 cells; test: Western blot of apoptosis- and autophagy-related proteins in HepG2 cells; assay type: cell-based; settings: HepG2, 25 μmol∙L−1, 24 h
Procedure: (§1) Protein samples were prepared using a RIPA lysis buffer. The concentration of the protein was analyzed using a nucleic acid and protein microanalyzer (Molecular Devices, San Jose, CA, USA). SDS–PAGE was performed to separate the proteins, which were then electrotransferred onto a PVDF membrane. The membrane was incubated with antibodies at 4 °C overnight. Next, the membrane was washed and incubated with an HRP-conjugated secondary antibody (Beyotime, BeiJing, China). Finally, signals were detected by the ECL method (Beyotime, BeiJing, China) and analyzed using ImageJ software.

[5] = tested on: HepG2 and RAW264.7 co-cultivation; test: Western blot in HepG2 and RAW264.7 co-cultivation; assay type: cell-based; settings: 25 μmol∙L−1, 48 h
Procedure: L02, HepG2, and RAW264.7 cells were incubated in DMEM (Gibco, Carlsabad, CA, USA). Then, they were supplemented with 10% FBS (Gibco, Carlsbad, CA, USA) and 100 IU/mL streptomycin-penicillin (Solarbio, Beijing, China) in a CO2 chamber at 37 °C and 95% humidity. The morphology of the cells was observed using a reversed microscope (Olympus Corporation, Shinjuku, Japan) at × 200 magnifications. The Tissue Culture Plate Insert (LABSELECT, Beijing, China, Lot: 20421087A) chambers were used for HepG2 and RAW264.7-cell co-cultivation.
as §1
RAW264.7 cells (1.5 × 10^5 cells/well) and HepG2 cells (4 × 10^5 cells/well) were incubated in a Tissue Culture Plate Insert (LABSELECT, Hangzhou, China) at 37 °C and 95% humidity. Raw264.7 cells were incubated in 12-well plates, and HepG2 cells were incubated in Transwell chambers. After 24 h, the cells were treated with the compound for 48 h. Then, the chamber was discarded, and RAW264.7 cells were washed twice with PBS and a fresh medium. Next, 1.5 mL/well and 100 μL/well FluoSpheresTM carboxylate (Invitrogen, Carlsbad, CA, USA) were added to the medium for 2 h in the dark. Cells were washed twice with PBS, harvested, and then resuspended in 0.5 mL PBS. Finally, the cells were measured by a FACSCalibur (Becton Dickinson, Franklin Lakes, NJ, USA). Data were analyzed using FlowJo software.

[6] = molecular target: ATP1A1 (Homo sapiens, UniProt P05023); test: CETSA binding assay; set-up: we focused on the regulatory effect of 5 on ATP1A1 in HepG2 cells; endogenous in cells; host or cells: HepG2; settings: 50 μmoL−1, western blot
Procedure: Figure 4 Compound 5 promoted the endocytosis and degradation of ATP1A1. (A) HepG2 cells were treated with 12.5 μmol∙L^−1 or 25 μmol∙L^−1 5 for 48 h, and the lysosomal co-localization assay was performed with a confocal laser. (B) Cells exposed to 25 μmol∙L^−1 5 for 12 h or 24 h were detected by fluorescence staining. (C) 5 is depicted in red, and the chains of Na^+, K^+-ATPase α/β/γ are represented by light blue, cyan-blue, and magenta, respectively. The crystallography, atomic coordinates, and structure factors have been deposited in the Protein Data Bank, www.pdb.org (accessed on 1 February 2023) (PDB ID code 3KDP). (D) The CETSA binding assay of ATP1A1 and β-actin in the presence or absence of 5 (50 μmoL^−1) at different temperatures was detected by western blot. The temperature-dependent melting curves and the apparent aggregation temperature were calculated by nonlinear regression. Values represent the mean ± SEM (N = 3 replicates).

With `C[C@H](O)[C@]1(O)CC[C@@]2(O)[C@]1(C)[C@H](OC(=O)/C=C/c1ccccc1)C[C@@H]1[C@@]3(C)CC[C@H](O[C@H]4C[C@H](O)[C@H](O)[C@@H](C)O4)CC3=CC[C@]12O` [Compound 5, Cynsaccatol L] the IC50 [1] was 12.6 ± 2.13 µM, the IC50 [2] was 24.5 ± 2.33 µM and the “cell migration and proliferation (scratch and colony formation)” value [3] was “greatly inhibited”. For the same molecule, the “Bax, cleaved caspase 3 and cleaved caspase 8 protein expression” value [4] was “increased”, the Bcl-2 protein expression [4] was “decreased” and the “expression of LC3-B and p62” value [4] was “upregulating”. The “phosphorylation of AKT and mTOR” value [4] was “inhibited”, the Bcl2 expression ([5]; vs C and C1 groups) was “down-regulating” and the “expression of cleaved-caspase 3, cleaved-caspase 8, LC3B, p62 and Bax” value ([5]; vs C and C1 groups) was “significantly upregulate”. For the same molecule, the “expression of CD206 and ARG-1” value ([5]; western blot) was “downregulated” and the “denaturation temperature of ATP1A1 (CETSA)” value [6] was “higher than that of the control group”.

Reference: article PMC10058894, “Bioactive C21 Steroidal Glycosides from Euphorbia kansui Promoted HepG2 Cell Apoptosis via the Degradation of ATP1A1 and Inhibited Macrophage Polarization under Co-Cultivation” (Molecules, 2023)
